Data as given in US5317014A, “Peptides and pseudopeptides derived from tachykinin” (priority 1991, dated 1994).
Structures can show the parent of a compound that is named as a salt.

Assays:
mouse = test: Eddy test in the mouse (thermal hyperalgesia, hot plate 55° C.); format: in vivo; conditions: dose increasing the reaction time by 50%; i.v. 5 minutes before heating plate; CD1 male mice
Protocol: This test consists in measuring the reaction time to heat determined by licking of the forepaws in a mouse (CD1 male, Ch. River, 25-30 g) placed on a metal plate heated to 55° C.
The animals were treated intravenously with the compounds of the invention 5 minutes before passing onto the heating plate.
The mean of the reaction times obtained for each batch treated (12 mice per batch) was compared with the mean of the corresponding control batch.

NK3 receptor = biological target: T1, NK3 receptor (Rattus norvegicus, UniProt P16177); test: Bio assay on isolated smooth muscle: rat portal vein; format: cell-based; conditions: antagonistic power, read-out: pA2 NK3 (converted)
T1 construct: three smooth muscle preparations were used; from tissue; host or cells: rat portal vein (isolated smooth muscle)
T1 sequence (P16177 1-452): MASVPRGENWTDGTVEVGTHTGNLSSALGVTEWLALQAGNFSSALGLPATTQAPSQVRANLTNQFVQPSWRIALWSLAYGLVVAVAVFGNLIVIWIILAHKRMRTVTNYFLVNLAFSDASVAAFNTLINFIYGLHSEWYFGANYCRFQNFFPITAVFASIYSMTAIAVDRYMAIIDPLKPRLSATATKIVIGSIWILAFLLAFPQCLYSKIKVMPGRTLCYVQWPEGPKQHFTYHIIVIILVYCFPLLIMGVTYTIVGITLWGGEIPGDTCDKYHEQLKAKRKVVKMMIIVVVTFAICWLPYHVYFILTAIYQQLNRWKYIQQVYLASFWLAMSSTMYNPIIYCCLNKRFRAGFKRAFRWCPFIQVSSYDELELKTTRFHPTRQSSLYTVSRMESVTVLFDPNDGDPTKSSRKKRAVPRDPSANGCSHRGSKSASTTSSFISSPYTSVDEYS
Protocol: (§1) In order to evaluate the neurokinin antagonistic potential of the compounds of the invention, three smooth muscle preparations were used. Each of these preparations, described as having a good specificity for one type of receptor for neurokinins, was carried out conforming to the following techniques described in the literature:
rat portal vein for the study of the NK3 receptor according to D. REGOLI et al. (European J. Pharmacol. 134, 321-326, 1986).
(§2) The antagonistic power of the compounds of the invention is expressed in the form of pA2 as defined by O. ARUNLAKSHANA and H. O. SCHILD (Brit. J. Pharmacol., 14, 48-58, 1959).

NK2 receptor = biological target: T2, NK2 receptor (Oryctolagus cuniculus, UniProt P79218); test: Bio assay on isolated smooth muscle: rabbit pulmonary artery without endothelium; format: cell-based; conditions: antagonistic power, read-out: pA2 NK2 (converted)
T2 construct: three smooth muscle preparations were used; from tissue; host or cells: rabbit pulmonary artery without endothelium (isolated smooth muscle)
T2 sequence (P79218 1-384): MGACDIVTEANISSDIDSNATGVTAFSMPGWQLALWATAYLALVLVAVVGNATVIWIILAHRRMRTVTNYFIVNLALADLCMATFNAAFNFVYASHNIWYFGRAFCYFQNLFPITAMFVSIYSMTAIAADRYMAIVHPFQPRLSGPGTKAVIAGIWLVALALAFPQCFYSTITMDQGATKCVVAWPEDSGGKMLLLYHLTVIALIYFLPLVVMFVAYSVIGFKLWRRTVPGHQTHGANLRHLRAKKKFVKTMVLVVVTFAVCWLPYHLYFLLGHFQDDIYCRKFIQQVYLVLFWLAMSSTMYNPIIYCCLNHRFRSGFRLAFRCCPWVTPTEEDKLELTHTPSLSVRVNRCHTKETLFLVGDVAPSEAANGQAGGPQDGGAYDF
Protocol: as §1
rabbit pulmonary artery without endothelium for the study of the NK2 receptor according to D. REGOLI et al. (European J. Pharmacol. 125, 37-44, 1985);
as §2

NK1 receptor = format: cell-based, rabbit; conditions: for pA2 NK1: antagonistic power, rabbit vena cava
Protocol: as §1
rabbit vena cava for the study of the NK1 receptor according to D. REGOLI et al. (J. Cardiovasc. Pharmacol., in press);
as §2

Compound | Eddy test in the mouse ED50 (mouse) | Kb (NK3 receptor) | Kb (NK2 receptor) | pA2 NK1 (NK1 receptor) | antagonistic activity with respect to NK1 receptors, compared with NK2 and NK3 (in words) (NK1 receptor; isolated smooth muscle preparations)
CN1CC[C@]23c4c5ccc(O)c4O[C@H]2[C@@H](O)C=C[C@H]3[C@H]1C5 [morphine] | 0.5 mg/kg i.v. | – | – | – | –
CN(Cc1ccccc1)C(=O)[C@H](Cc1ccccc1)NC(=O)[C@@H](Cc1cn(C=O)c2ccccc12)NC(=O)C[C@@H]1NC(=O)[C@@H]2C3CCC(CC3)N2C1=O [Example 1, Cyclo(Abo--Asp)--trp(CHO)--Phe--N(CH3)CH2 C6 H5] | – | 13.8 µM | 13.8 µM | – | –
CN(Cc1ccccc1)C(=O)[C@H](Cc1ccccc1)NC(=O)[C@@H](Cc1cn(C=O)c2ccccc12)NC(=O)C[C@H]1NC(=O)[C@@H]2Cc3ccccc3CN2C1=O [Example 6, Cyclo(Tic--asp)--trp(CHO)--Phe--N(CH3)CH2 C6 H5] | – | 13.5 µM | > 6.76 µM | 6.87 | –
CN(Cc1ccccc1)C(=O)[C@H](Cc1ccccc1)NC(=O)[C@@H](Cc1cn(C=O)c2ccccc12)NC(=O)C[C@@H]1NC(=O)[C@H](Cc2ccccc2)N(C)C1=O [Example 7, Cyclo(MePhe--Asp)--trp(CHO)--Phe--N(CH3)CH2 C6 H5] | – | 13.5 µM | 13.5 µM | 6.87 | –
CN(Cc1ccccc1)C(=O)[C@H](Cc1ccccc1)NC(=O)C[C@@H]1NC(=O)[C@@H]2Cc3ccccc3CN2C1=O [Example 16, Cyclo(Tic--Asp)--Phe--N(CH3)CH2 C6 H5] | – | 19.1 µM | 19.1 µM | 6.02 | –
Cyclo(Tic--asp)--.PSI.(CH2 S)--Phe--N(CH3)CH2 C6 H5 [Example 24] | – | – | – | – | more particularly the case
CN(Cc1ccccc1)C(=O)[C@H](Cc1ccccc1)NC(=O)[C@@H]1C2CCC(CC2)N1C(=O)c1c[nH]c2ccccc12 [Example 31, (indol-3-yl) carbonyl--Abo--Phe--N(CH3)CH2 C6 H5] | – | 9.12 µM | 13.8 µM | 7.34 | –
CN(Cc1ccccc1)C(=O)[C@H](Cc1ccccc1)NC(=O)[C@@H](Cc1c[nH]c2ccccc12)NC(=O)C[C@@H]1NC(=O)[C@@H]2C3CCC(CC3)N2C1=O [Example 9, Cyclo(Abo--Asp)--trp--Phe--N(CH3)CH2 C6 H5] | – | – | 1 µM | – | –
CN(Cc1ccccc1)C(=O)[C@H](Cc1ccccc1)NC(=O)[C@@H](Cc1cn(C=O)c2ccccc12)NC(=O)C[C@H]1NC(=O)[C@H]2C3CCC(CC3)N2C1=O [Example 5, Cyclo(abo--asp)--trp(CHO)--Phe--N(CH3)CH2 C6 H5] | – | 13.8 µM | 2 µM | – | –
CN(Cc1ccccc1)C(=O)[C@H](Cc1ccccc1)NC(=O)[C@@H](Cc1cn(C(=O)CCCCCCN)c2ccccc12)NC(=O)C[C@@H]1NC(=O)[C@@H]2C3CCC(CC3)N2C1=O [Example 38, Cyclo(Abo--Asp)--trp(CO(CH2)6 NH2, HCl)--Phe--N(CH3)CH2 C6 H5] | – | – | – | 6.70 | –
